Results on 1 compound are retold here after patent publication US20210338755A1, “AQUEOUS EXTRACT FROM CELLS OF FITZROYA CUPRESSOIDES (ALERCE) WITH ANTI- AGING AND SKIN REGENERATION PROPERTIES” (RUBISCO BIOTECHNOLOGY, priority 2018, published 2021).

The structures appear in SMILES notation.

The assay relates to HaCaT cells. Nature of the assay: Scratch wound experiment with cell division inhibitor mitomycin C. Particulars: 48 hours; 20 μmol/L mitomycin C before treatment with 0.125% v/v extract. Type of assay: cell-based.

From the text: Evaluation of the effect of mitomycin C in wound healing repair. […] 20 μmol/L of Mitomycin C was applied before each treatment.
The application of mitomycin inhibits division of the HaCaT cells that, together with cell migration, are the two mechanisms involved in wound healing repair.

As to `CO[C@@]12[C@H](COC(N)=O)C3=C(C(=O)C(C)=C(N)C3=O)N1C[C@@H]1N[C@@H]12` [mitomycin C], the “effect on wound closure induced by Alerce cell culture extract” value is recorded as “significantly inhibited the wound closure”.
